In ChEMBL document CHEMBL1201862, “PubChem BioAssay data set” (2004):
The source made the active and inactive calls.

Experiments:
[1] = Luminescence Cell-Based Dose Confirmation to Identify Activators of 5'UTR Stem-Loop Driven Alpha-Synuclein mRNA Translation in H4 Neuroglioblastoma Cells. [Related pubchem assays: 1829 (Project Summary), 1814 (Primary HTS)]; format: functional
[2] = Luminescence Cell-Based Dose Response to Identify Activators of Luciferase Translation or Activity in H4-C Neuroglioblastoma Cells. [Related pubchem assays: 1829 (Project Summary), 1814 (Primary HTS)]; format: functional
[3] = Luminescence Cell-Based Dose Response HTS to Identify Activators of Luciferase Translation or Activity in H4 […] Cells. [Related pubchem assays: 1829 (Project Summary), 1814 (Primary HTS)]; format: functional
[4] = Luminescence Cell-Based Dose Response to Identify Activators of 5'UTR Stem-Loop Driven Prion Protein mRNA Translation in H4-C Neuroglioblastoma Cells. [Related pubchem assays: 1829 (Project Summary), 1814 (Primary HTS)]; format: functional
[5] = Late stage assay provider results from the probe development effort to identify selective inhibitors of heat shock protein 90 (HSP90): Absorbance-based cell proliferation assay in SKBR3 cells.; format: functional; conditions: SK-BR-3
[6] = Late stage assay provider results from the probe development effort to identify selective inhibitors of heat shock protein 90 (HSP90): Absorbance-based cell proliferation assay in MCF7 cells.; format: functional
[7] = NIH3T3 cell viability loss – ATP luminescence, mouse fibroblasts, counter-screen, dose response (AID 2010); format: functional, cell-based;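 also: cells exposed to compound for about 90 hours before reading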
[8] = cells
[9] = Trypanosoma cruzi growth suppression in host cells – NIH3T3 host cells, beta-gal luminescence, confirmation (AID 2044); format: functional, cell-based;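 also: intracellular parasites grown in NIH/3T3 mouse fibroblasts as host cells; luminescent beta-galactosidase reporter signal from transgenic T. cruzi replicating inside host cells; inhibitors lower the luminescence signal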
[10] = Luminescence-based cell-based high throughput dose response assay to identify activators of the DAF-12 from the parasite S. stercoralis (ssDAF-12).; format: functional
[11] = molecular target: T1, Oxysterols receptor LXR-beta (Homo sapiens, UniProt P55055); assay: LXR agonists, Gal4 luciferase reporter, dose response, counter-screen for ssDAF-12 agonist project, cell-based, luminescence, HEK293, S. stercoralis campaign (AID 720737); format: functional; conditions: read-out: IC50 (the source's name)
T1 sequence (P55055 whole entry): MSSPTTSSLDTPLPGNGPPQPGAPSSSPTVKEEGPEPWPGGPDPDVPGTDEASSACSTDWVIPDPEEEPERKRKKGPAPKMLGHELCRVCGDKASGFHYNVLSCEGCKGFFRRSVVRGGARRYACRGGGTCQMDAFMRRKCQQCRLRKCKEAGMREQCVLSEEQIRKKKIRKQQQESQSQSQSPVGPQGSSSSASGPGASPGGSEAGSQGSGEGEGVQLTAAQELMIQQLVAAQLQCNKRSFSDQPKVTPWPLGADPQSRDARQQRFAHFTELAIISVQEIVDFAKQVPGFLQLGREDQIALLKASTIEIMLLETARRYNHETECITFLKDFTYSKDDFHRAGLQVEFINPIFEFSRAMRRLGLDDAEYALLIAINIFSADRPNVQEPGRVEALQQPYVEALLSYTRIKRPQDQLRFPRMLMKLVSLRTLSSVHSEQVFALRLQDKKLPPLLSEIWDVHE

[12] = viability loss in Vero cells – cytotoxicity control for Vif-APOBEC3G degradation inhibitor project, dose response (AID 1117358); format: functional; conditions: Vero
[13] = lung carcinoma cell viability loss – CellTiter-Glo luminescence, dry powder, set 17, dose response (AID 1117284); format: functional, cell-based; conditions: A549
[14] = viability loss in A549 lung cells – cell-based, 24 h, CellTiter-Glo luminescence, cherry-picks, cytotoxicity control, dose response (AID 1053115); format: functional; conditions: A549, 24 h
[15] = activation of miR-122 Renilla sensor silencing – cell-based, Huh7 psiCHECK-miR122, Renilla luciferase, cherry-picked, dose response (AID 651956); format: functional;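 also: huh7 hepatoma cells stably carrying a psiCHECK-2 miR-122 sensor plasmid; renilla luciferase signal reporting endogenous miR-122 activity after 48 h compound exposure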
[16] = molecular target: Paired box protein Pax-8 (Homo sapiens, UniProt Q06710); assay: PAX8 transcriptional activity inhibition in RMG-I – RMG-I cells, luciferase, cherry-pick, dose response (AID 687027); format: functional, cell-based;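 also: luciferase reporter driven by Pax8 target thyroperoxidase promoter measured by SteadyGlo luminescence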
Chain of Paired box protein Pax-8 (Q06710 whole entry): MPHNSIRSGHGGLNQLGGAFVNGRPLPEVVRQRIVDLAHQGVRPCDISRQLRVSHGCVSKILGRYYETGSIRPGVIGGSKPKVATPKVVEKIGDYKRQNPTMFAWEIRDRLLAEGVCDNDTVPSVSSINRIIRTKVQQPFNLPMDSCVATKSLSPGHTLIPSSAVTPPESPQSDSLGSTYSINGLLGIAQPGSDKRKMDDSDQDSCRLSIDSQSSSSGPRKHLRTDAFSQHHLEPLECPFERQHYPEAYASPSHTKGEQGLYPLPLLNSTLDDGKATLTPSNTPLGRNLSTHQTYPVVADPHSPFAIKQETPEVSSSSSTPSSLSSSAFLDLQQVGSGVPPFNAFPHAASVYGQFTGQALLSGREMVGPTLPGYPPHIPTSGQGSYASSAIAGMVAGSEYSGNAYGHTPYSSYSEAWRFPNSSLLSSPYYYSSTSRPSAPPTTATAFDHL

[17] = general mammalian cell viability loss – activator set, cherry-pick, cytotoxicity control for miR-122 modulator project, dose response (AID 720690); format: functional, cell-based;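 also: HEK293T human cells scored for general mammalian cytotoxicity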
[18] = general mammalian cell viability loss – inhibitor set, cherry-pick, set 2, cytotoxicity control for miR-122 modulator project, dose response (AID 720697); format: functional, cell-based
[19] = molecular target: Protein Wnt-3a (Mus musculus, UniProt P27467); assay: antagonism of Wnt3a pathway luciferase reporter – Wnt-LIGHT cells, luminescence, selectivity assay for Gli-SUFU antagonist project, dose response (AID 651570); format: functional; conditions: read-out: IC50_Mean;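 also: Wnt-LIGHT reporter cells stimulated with conditioned medium from Wnt3a-producing cells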
Chain of Protein Wnt-3a (P27467 whole entry, the tested form may be a part): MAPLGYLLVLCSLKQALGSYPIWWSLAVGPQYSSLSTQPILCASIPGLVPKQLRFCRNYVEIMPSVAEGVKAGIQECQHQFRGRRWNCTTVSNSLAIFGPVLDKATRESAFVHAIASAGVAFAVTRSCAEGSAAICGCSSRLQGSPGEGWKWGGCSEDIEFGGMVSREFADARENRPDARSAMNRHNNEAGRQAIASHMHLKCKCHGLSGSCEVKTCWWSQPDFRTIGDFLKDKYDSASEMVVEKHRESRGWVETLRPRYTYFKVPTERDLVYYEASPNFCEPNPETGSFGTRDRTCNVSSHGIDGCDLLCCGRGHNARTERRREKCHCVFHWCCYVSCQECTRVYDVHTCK

[20] = off-target signal loss in HeLa-CEM21 co-culture – HeLa F-luc CTL cells, cherry-picked, counter-screen for HIV-1 Env fusion inhibitor project, dose response (AID 652040); format: functional, cell-based;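 also: potency for signal decrease marking cytotoxic or nonspecific inhibition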
[21] = test system: INS1; assay: INS-1E survival protection against cytokine death – cell-based, luminescence, retest, dose response (AID 449756); format: functional; conditions: Rattus norvegicus;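 also: cell death triggered by IL-1 beta plus TNF-alpha plus IFN-gamma mixture; protective hits raise ATP signal compared with cytokine alone wells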
[22] = loss of viability in HepG2 cells – cell-based, CellTiter-Glo, cherry-picked, cytotoxicity control for Shn3 inhibitor project, dose response (AID 624134); format: functional
[23] = viability loss in CEM21 cells – cell-based, plate reader, dry powder, cytotoxicity control, dose response (AID 687026); format: functional
[24] = reduction of Shn3 3'UTR-driven luciferase in osteoblasts – cell-based, Clone20 osteoblasts, firefly luciferase, cherry-picked, dose response (AID 624132); format: functional;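 also: firefly luciferase luminescence from reporter carrying the Shn3 3'UTR in osteoblasts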
[25] = non-specific 3'UTR reporter inhibition in Clone20-Shn3RL – cell-based, Renilla luciferase, cherry-picked, counter-screen for Shn3 inhibitor project, dose response (AID 624133); format: functional
[26] = blockers of HIV-1 envelope-mediated cell-cell fusion – cherry-pick, dose response (AID 652057); format: functional, cell-based
[27] = HIV-1 AD8 envelope cell-cell fusion blockers – cherry-pick, dose response (AID 652062); format: functional, cell-based;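 also: luciferase signal from cell-cell fusion driven by HIV-1 clade B AD8 Env; potency is for inhibitors of fusion seen as a drop in luminescence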

In the case of `CCOC(=O)c1c(C)[nH]c(N=Nc2ccc(C)cc2)c1C`, the EC50 [1] is reported as 0.387 µM (active), the EC50 [2] is reported as 0.3 µM (active) and the EC50 [3] is reported as < 0.1 µM (active). For the same compound, the EC50 [4] was 0.305 µM (active).

For `COC(=O)CCCCOc1ccc2cc(C#N)c(=O)oc2c1`, the IC50 [5] was > 100 µM (inactive) and the IC50 [6] was > 100 µM (inactive).

In the case of `Cc1cccc(NC(=O)c2coc(=O)c(Br)c2)n1`, the IC50 [5] is reported as 45.8 µM (inactive) and the IC50 [6] is reported as 27.3 µM (inactive).

In the case of `O=C(C1CCCN(Cc2ccc(Cl)cc2)C1)N1CCCCC1` (stereo unspecified), the EC50 [7] is reported as > 30 µM (not active), the EC50 [8] is reported as 0.055 µM (active) and the EC50 [9] is reported as < 0.1 µM (active).

With `Cc1nn(CC(=O)OC(C)C(=O)Nc2ccccc2[N+](=O)[O-])c(C)c1[N+](=O)[O-]` (stereo unspecified) the IC50 [10] was > 67.5 µM (inactive) and the EC50 [11] was > 67.5 µM (inactive).

For `CCOc1c(OC)cccc1C1CC(=O)Nc2cc3c(cc21)OCCO3` (stereo unspecified), the CC50 [12] was > 40 µM (active).

With `O=C(NCC(c1cccnc1)N1CCN(c2ccccc2F)CC1)OCc1ccccc1` (stereo unspecified) the EC50 [7] was > 60 µM (not active), the EC50 [8] was 0.071 µM (active) and the EC50 [9] was < 0.1 µM (active).

For `C[C@@H]1CN([C@H](C)CO)S(=O)(=O)c2ccc(C#C[C@@H](C)O)cc2O[C@H]1CN(C)Cc1ccc(-c2ccccc2)cc1`, the AC50 [13] was > 52 µM (inactive) and the AC50 [14] was > 60 µM (inactive).

With `C[C@H](O)C#Cc1ccc2c(c1)O[C@H](CN(C)Cc1ccc(-c3ccccc3)cc1)[C@@H](C)CN([C@H](C)CO)S2(=O)=O` the AC50 [13] was 35.1 µM (active), the AC50 [15] was 6.13 µM (active) and the AC50 [16] was 15.9 µM (active). For the same compound, the AC50 [17] was 16.7 µM (active), the AC50 [18] was 7.51 µM (active) and the AC50 [14] was 59.6 µM (active).

For `Cn1/c(=N\C(=O)c2ccco2)sc2ccccc21`, the IC50 [10] was > 67.5 µM (inactive) and the EC50 [11] was > 67.5 µM (inactive).

With `COc1ccc(CC(=O)Nc2cccc(S(=O)(=O)N3CCCCCC3)c2)cc1OC` the IC50 [19] was 1.73 µM (active), the AC50 [20] was > 70 µM (inactive) and the AC50 [21] was 6.12 µM (active). For the same compound, the AC50 [22] was 2.12 µM (active), the AC50 [23] was > 70 µM (inactive) and the AC50 [24] was 2.27 µM (active). The AC50 [25] was 30 µM (active), the AC50 [26] was 7.05 µM (active) and the AC50 [27] was 3.47 µM (active).
